# Source: BindingDB's records for doi:10.1074/jbc.M110.109017 (The University of Kansas, 2010)
# pKd: −log10 of the molar value.
# Target: Cytochrome P450 2E1 (Homo sapiens, UniProt P05181)
# Experiment: Binding Assay
# Source text: Binding assay using CYP2E1.
# Chain of Cytochrome P450 2E1 (P05181 whole entry): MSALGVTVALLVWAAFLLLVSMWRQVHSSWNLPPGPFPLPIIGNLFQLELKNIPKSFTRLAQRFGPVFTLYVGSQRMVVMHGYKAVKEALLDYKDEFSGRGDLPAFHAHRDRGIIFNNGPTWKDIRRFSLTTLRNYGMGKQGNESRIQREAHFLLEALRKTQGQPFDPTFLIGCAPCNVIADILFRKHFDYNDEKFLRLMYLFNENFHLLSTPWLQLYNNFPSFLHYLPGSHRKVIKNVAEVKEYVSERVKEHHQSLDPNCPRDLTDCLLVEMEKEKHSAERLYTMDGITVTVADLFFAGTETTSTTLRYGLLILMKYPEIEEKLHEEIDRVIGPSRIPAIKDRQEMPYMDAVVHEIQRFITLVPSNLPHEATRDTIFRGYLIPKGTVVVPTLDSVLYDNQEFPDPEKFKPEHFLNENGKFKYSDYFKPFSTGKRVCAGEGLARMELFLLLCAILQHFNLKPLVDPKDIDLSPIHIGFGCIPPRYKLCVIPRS
row,Structure (SMILES),pKd
1,O=C(O)CCCCCCCn1ccnc1,4.68
2,O=C(O)CCCCCCCCCn1ccnc1 [Omega-imidazolyl decanoic acid],5.05
3,O=C(O)CCCCCCCCCCCn1ccnc1 [Omega-imidazolyl dodecanoic acid],5.74
